Data: ChEMBL document CHEMBL2440076, “New triarylpyrazoles as broad-spectrum anticancer agents: design, synthesis, and biological evaluation” (Eur J Med Chem, 2013)

Legend:
[1] = Growth inhibition of human Hs 578T cells assessed as cell growth at 10 uM after 48 hrs by sulforhodamine B assay; assay type: functional; conditions: read-out: Activity
RPMI-8226 = experiment: Growth inhibition of human RPMI8226 cells after 48 hrs by sulforhodamine B assay; assay type: functional, cell-based; conditions: RPMI-8226, 48 h
BT-549 = experiment: Growth inhibition of human BT549 cells assessed as cell growth at 10 uM after 48 hrs by sulforhodamine B assay; assay type: functional; conditions: BT-549, 48 h, read-out: Activity
RXF 393 = experiment: Growth inhibition of human RXF393 cells assessed as cell growth at 10 uM after 48 hrs by sulforhodamine B assay; assay type: functional; conditions: RXF 393, 48 h, read-out: Activity
SK-OV-3 [2] = experiment: Growth inhibition of human SKOV3 cells after 48 hrs by sulforhodamine B assay; assay type: functional; conditions: SK-OV-3, 48 h
HCT-116 = experiment: Growth inhibition of human HCT116 cells assessed as cell growth at 10 uM after 48 hrs by sulforhodamine B assay; assay type: functional; conditions: HCT-116, 48 h, read-out: Activity
786-0 = experiment: Growth inhibition of human 786-0 cells assessed as cell growth at 10 uM after 48 hrs by sulforhodamine B assay; assay type: functional; conditions: 786-0, 48 h, read-out: Activity
HL-60(TB) = experiment: Growth inhibition of human HL-60(TB) cells assessed as cell growth at 10 uM after 48 hrs by sulforhodamine B assay; assay type: functional; conditions: HL-60, 48 h, read-out: Activity
A498 = experiment: Growth inhibition of human A498 cells assessed as cell growth at 10 uM after 48 hrs by sulforhodamine B assay; assay type: functional; conditions: A498, 48 h, read-out: Activity
SNB-19 = experiment: Growth inhibition of human SNB19 cells assessed as cell growth at 10 uM after 48 hrs by sulforhodamine B assay; assay type: functional; conditions: SNB-19, 48 h, read-out: Activity
UACC-257 = experiment: Growth inhibition of human UACC257 cells assessed as cell growth at 10 uM after 48 hrs by sulforhodamine B assay; assay type: functional; conditions: UACC-257, 48 h, read-out: Activity
SNB-75 = experiment: Growth inhibition of human SNB75 cells after 48 hrs by sulforhodamine B assay; assay type: functional; conditions: SNB-75, 48 h
SK-MEL-28 = experiment: Growth inhibition of human SK-MEL-28 cells after 48 hrs by sulforhodamine B assay; assay type: functional; conditions: SK-MEL-28, 48 h
TK-10 = experiment: Growth inhibition of human TK10 cells after 48 hrs by sulforhodamine B assay; assay type: functional; conditions: TK-10, 48 h
SK-MEL-5 [3] = experiment: Growth inhibition of human SK-MEL-5 cells assessed as cell growth at 10 uM after 48 hrs by sulforhodamine B assay; assay type: functional; conditions: SK-MEL-5, 48 h, read-out: Activity
PC-3 = experiment: Growth inhibition of human PC3 cells assessed as cell growth at 10 uM after 48 hrs by sulforhodamine B assay; assay type: functional; conditions: PC-3, 48 h, read-out: Activity
UACC-62 = experiment: Growth inhibition of human UACC62 cells assessed as cell growth at 10 uM after 48 hrs by sulforhodamine B assay; assay type: functional; conditions: UACC-62, 48 h, read-out: Activity
T47D = experiment: Growth inhibition of human T47D cells after 48 hrs by sulforhodamine B assay; assay type: functional
UO-31 = experiment: Growth inhibition of human UO31 cells assessed as cell growth at 10 uM after 48 hrs by sulforhodamine B assay; assay type: functional; conditions: UO-31, 48 h, read-out: Activity
ACHN = experiment: Growth inhibition of human ACHN cells assessed as cell growth at 10 uM after 48 hrs by sulforhodamine B assay; assay type: functional; conditions: read-out: Activity
SK-MEL-2 = experiment: Growth inhibition of human SK-MEL-2 cells assessed as cell growth at 10 uM after 48 hrs by sulforhodamine B assay; assay type: functional; conditions: SK-MEL-2, 48 h, read-out: Activity
SK-OV-3 [4] = experiment: Growth inhibition of human SKOV3 cells assessed as cell growth at 10 uM after 48 hrs by sulforhodamine B assay; assay type: functional; conditions: SK-OV-3, 48 h, read-out: Activity
OVCAR-3 = experiment: Growth inhibition of human OVCAR3 cells assessed as cell growth at 10 uM after 48 hrs by sulforhodamine B assay; assay type: functional; conditions: OVCAR-3, 48 h, read-out: Activity
A549 = experiment: Growth inhibition of human A549/ATCC cells after 48 hrs by sulforhodamine B assay; assay type: functional; conditions: A549, 48 h
K562 = experiment: Growth inhibition of human K562 cells after 48 hrs by sulforhodamine B assay; assay type: functional; conditions: K562, 48 h
MDA-MB-468 = experiment: Growth inhibition of human MDA-MB-468 cells after 48 hrs by sulforhodamine B assay; assay type: functional, cell-based; conditions: MDA-MB-468, 48 h
HT-29 = experiment: Growth inhibition of human HT-29 cells after 48 hrs by sulforhodamine B assay; assay type: functional; conditions: HT-29, 48 h
U-251 = experiment: Growth inhibition of human U251 cells after 48 hrs by sulforhodamine B assay; assay type: functional; conditions: U-251, 48 h
SN12C = experiment: Growth inhibition of human SN12C cells assessed as cell growth at 10 uM after 48 hrs by sulforhodamine B assay; assay type: functional; conditions: read-out: Activity
NCI-H23 = experiment: Growth inhibition of human NCI-H23 cells after 48 hrs by sulforhodamine B assay; assay type: functional; conditions: NCI-H23, 48 h
SF-539 = experiment: Growth inhibition of human SF539 cells after 48 hrs by sulforhodamine B assay; assay type: functional; conditions: SF-539, 48 h
DU-145 = experiment: Growth inhibition of human DU145 cells after 48 hrs by sulforhodamine B assay; assay type: functional; conditions: DU-145, 48 h
[5] = Growth inhibition of human HCC2998 cells after 48 hrs by sulforhodamine B assay; assay type: functional; conditions: HCC 2998, 48 h
SK-MEL-5 [6] = experiment: Growth inhibition of human SK-MEL-5 cells after 48 hrs by sulforhodamine B assay; assay type: functional; conditions: SK-MEL-5, 48 h
[7] = read-out: LC50 (the source's name)

With O=C(Nc1cccc(-n2cc(-c3ccncc3)c(-c3ccc(Cl)c(O)c3)n2)c1)Nc1ccc(Cl)c(Cl)c1 the growth at 10 µM [1] was 36.1%, the GI50 (RPMI-8226) was 1.03 µM and the IC50 (RPMI-8226) was 1.03 µM. The TGI (RPMI-8226) was greater than 32.5 µM, the CC50 (RPMI-8226; [7]) was greater than 32.5 µM and the growth at 10 µM (BT-549) was 34.4%. It also gave a growth at 10 µM (RXF 393) of 4.46%, a GI50 (SK-OV-3 [2]) of 1.2 µM and a TGI (SK-OV-3 [2]) greater than 32.5 µM. For the same compound, the CC50 (SK-OV-3 [2]; [7]) was greater than 32.5 µM, the growth at 10 µM (HCT-116) was 11.1% and the growth at 10 µM (786-0) was 30.1%. The growth at 10 µM (HL-60(TB)) was -6.98%, the growth at 10 µM (A498) was 31.1% and the growth at 10 µM (SNB-19) was 30.3%. It also gave a growth at 10 µM (UACC-257) of -17.3%, a GI50 (SNB-75) of 1.09 µM and an LC50 (lethal concentration, 50% net cell kill) (SNB-75) greater than 32.5 µM. For the same compound, the TGI (SNB-75) was 12.2 µM, the GI50 (SK-MEL-28) was 1.46 µM and the LC50 (SK-MEL-28) was greater than 32.5 µM. The TGI (SK-MEL-28) was 9.85 µM, the GI50 (TK-10) was 1.91 µM and the TGI (TK-10) was greater than 32.5 µM. It also gave a CC50 (TK-10; [7]) greater than 32.5 µM, a growth at 10 µM (SK-MEL-5 [3]) of -40.2% and a growth at 10 µM (PC-3) of 5.43%. For the same compound, the growth at 10 µM (UACC-62) was 14.9%, the GI50 (T47D) was 1.55 µM and the TGI (T47D) was 17.9 µM. For the same compound, the CC50 (T47D; [7]) was greater than 32.5 µM, the growth at 10 µM (UO-31) was 21% and the growth at 10 µM (ACHN) was 12.8%. It also gave a growth at 10 µM (SK-MEL-2) of -25.4%, a growth at 10 µM (SK-OV-3 [4]) of 18.7% and a growth at 10 µM (OVCAR-3) of -4.74%. It also gave a GI50 (A549) of 1.01 µM, an LC50 (concentration killing 50% of starting cells) (A549) greater than 32.5 µM and a TGI (A549) greater than 32.5 µM. The GI50 (K562) was 1.41 µM, the TGI (K562) was greater than 32.5 µM and the CC50 (K562; [7]) was greater than 32.5 µM. It also gave a GI50 (MDA-MB-468) of 0.729 µM, an IC50 (MDA-MB-468) of 0.73 µM and a TGI (MDA-MB-468) of 4.25 µM. For the same compound, the CC50 (MDA-MB-468; [7]) was greater than 32.5 µM, the GI50 (HT-29) was 4.89 µM and the TGI (HT-29) was greater than 32.5 µM. For the same compound, the CC50 (HT-29; [7]) was greater than 32.5 µM, the GI50 (U-251) was 1.51 µM and the LC50 (concentration killing 50% of cells) (U-251) was greater than 32.5 µM. It also gave a TGI (U-251) of 9.68 µM, a growth at 10 µM (SN12C) of 18% and a GI50 (NCI-H23) of 1.22 µM. The LC50 (NCI-H23) was greater than 32.5 µM, the TGI (NCI-H23) was 29.1 µM and the GI50 (SF-539) was 1.34 µM. The LC50 (concentration killing 50% of cells) (SF-539) was greater than 32.5 µM, the TGI (SF-539) was 8.97 µM and the GI50 (DU-145) was 1.5 µM. For the same compound, the LC50 (DU-145) was greater than 32.5 µM, the TGI (DU-145) was greater than 32.5 µM and the GI50 [5] was 2.89 µM. For the same compound, the TGI [5] was 13.9 µM, the CC50 [5, 7] was greater than 32.5 µM and the GI50 (SK-MEL-5 [6]) was 0.57 µM. It also gave an LC50 (concentration killing 50% of cells) (SK-MEL-5 [6]) of 2.35 µM and a TGI (SK-MEL-5 [6]) of 1.16 µM.
